Measurements from publication PMC3691182 (PLoS ONE, 2013).
Entries after “also recorded” stand apart in the source; their conditions may differ. Like-named read-outs stand apart in the source and are kept apart here.

How the values were obtained:
[1] = test system: sodium channel; details: cited from earlier work
Excerpt: Huwentoxin-IV (HWTX-IV), a tetrodotoxin-sensitive (TTX-s) sodium channel antagonist, is found in the venom of the Chinese spider Ornithoctonus huwena. A naturally modified HWTX-IV (mHWTX-IV), having a molecular mass 18 Da lower than HWTX-IV, has also been isolated from the venom of the same spider. […] Previous research has identified nearly 150 of these components in the Chinese bird spider, Ornithoctonus huwena, which is one of the most venomous spiders in China. […] To address this question, we adopted a triple-pulse protocol in which a test pulse (−10 mV) following a strong depolarization (+200 mV, 500 ms) was used to measure available TTX-S sodium currents.

[2] = test system: Nav1.7; test: Triple-pulse protocol, recovery of Nav1.7 current following strong depolarization (HEK293 cells); type: cell-based
[3] = test system: TTX-S sodium channels in rat DRG neurons; test: Current-voltage relationship, conductance, steady-state activation and inactivation of TTX-S sodium channel; type: cell-based
[4] = test system: TTX-S voltage-gated sodium channel of DRG neurons; test: Whole-cell patch-clamp, inhibition of TTX-S sodium currents in DRG neurons; type: cell-based, adult Sprague-Dawley rat
[5] = test system: TTX-S sodium channels in rat DRG neurons; test: Time course for block of TTX-S currents and reversal of block on washing; type: cell-based
[6] = test system: TTX-resistant voltage-gated sodium channels; details: in words; reference not given; cited from earlier work
Excerpt: Previous research has identified nearly 150 of these components in the Chinese bird spider, Ornithoctonus huwena, which is one of the most venomous spiders in China. Most of the toxins have six cystine residues adopting inhibitor cystine-knot (ICK) motif with a 1–4, 2–5, 3–6 disulfide bonding pattern; the biological activities of some peptide toxins were thoroughly investigated.

[7] = test system: domain II of Nav1.7; details: in words; ref [11]; cited from earlier work
[8] = test system: TTX-R sodium channel of DRG neurons; test: Whole-cell patch-clamp, TTX-R sodium currents in DRG neurons; type: cell-based, adult Sprague-Dawley rat
[9] = test system: neuronal TTX-sensitive voltage-gated sodium channels; details: cited from earlier work
[10] = test system: DRG neuron; design: method as in PMID 16267209, PMID 19409400; details: in words; ref [27], [28]; cited from earlier work

## ProTx-II
[1]; in words, ref [11], [19], [20]
  Reversal of binding to sodium channels by strong depolarization (literature): can be reversed by strong depolarization

## Huwentoxin-IV [HWTX-IV]
[2]; 1 µM toxin, HEK293 cells, +50 mV for 500 ms, in words
  Recovery of Nav1.7 current, +50 mV: little recovery
[2]; 1 µM toxin, HEK293 cells, +100 mV for 500 ms, in words
  Recovery of Nav1.7 current, +100 mV: little recovery
[2]; 1 µM toxin, HEK293 cells, +150 mV, five cells
  Recovery of Nav1.7 current, +150 mV: about 34%
[2]; 1 µM toxin, HEK293 cells, +200 mV, five cells
  Recovery of Nav1.7 current, +200 mV: ~78%
[2]; abstract summary, in words
  Recovery of Nav1.7 current by extreme depolarization (summary): voltage-dependent and was induced by extreme depolarization
[1]
  Dissociation at moderate depolarization: dissociates at moderate voltage depolarization voltages
  Reversal of binding to sodium channels by strong depolarization (literature): can be reversed by strong depolarization
  Reversibility of inhibition by strong depolarization (literature): reversible by strong depolarization
  Voltage above which currents can be observed (dissociation by strong depolarization): > 70 mV
[3]
  Channel conductance (conductance–voltage curve): did not change channel conductance
  Steady-state activation and inactivation, comparison of HWTX-IV and mHWTX-IV: no obvious difference
  Steady-state inactivation of TTX-S sodium channel: No shift of the steady-state inactivation curve
  Threshold of activation and reversal potential of TTX-S sodium channel (I–V): did not change the threshold of activation and alter the reversal potential
[4]
  IC50: 42.9 ± 1.72 nM
  Inhibition of TTX-S currents: almost completely inhibited; also recorded: significantly reduced
[5]
  Dissociation after washing, in words: slowly dissociated
  Time course for inhibition of TTX-S currents: 25.4 s
  Time course of dissociation after washing: 88.3 s
[6]
  Effect on TTX-resistant sodium channels (literature): no significant effect
[7]
  Binding site on Nav1.7: binds with the S3–S4 linker D816 and E818 in domain II of Nav1.7 by electrostatic interaction
[8]
  Effect on TTX-R sodium currents: no effect
[9]
  Inhibition of TTX-S sodium channel in DRG neurons (literature): specifically inhibited
[9]; read-out: IC50, inhibition of neuronal TTX-sensitive sodium channels (literature)
  IC50: 30 nM

## jingzhaotoxin-34 [JZTX-34]
[9]; in words, ref [9]
  Inhibition of neuronal TTX-sensitive sodium channels (literature): inhibited neuronal TTX-sensitive voltage-gated sodium channels

## Jingzhaotoxin-IX [JZTX-IX]
[10]
  Action under extreme depolarization on DRG neuron compared with mHWTX-IV: similar
